Literature values as cited in US20100317640A1, “ANTIMICROBIAL ZINC PYRITHIONE COMPOSITION AND METHOD” (MICROBAN PRODUCTS COMPANY, priority 2009, published 2010).

Conditions: neutral pH

**Q.** Which solubility in water does the source give for zinc pyrithione here?
**A.** 8 ppm
